In patent publication US20100190225A1, “D-PSICOSE PRODUCTION METHOD BY D-PSICOSE EPIMERASE” (CJ CHEILJEDANG CORP., priority 2005, published 2010):
Where two headings read alike, the source gives them in different places.

T1: psicose 3-epimerase (Agrobacterium fabrum, UniProt A9CH28)
T1 construct: made in house; host or cells: Escherichia coli BL21(DE3)
T1 sequence (A9CH28 with tags, fused parts or gaps): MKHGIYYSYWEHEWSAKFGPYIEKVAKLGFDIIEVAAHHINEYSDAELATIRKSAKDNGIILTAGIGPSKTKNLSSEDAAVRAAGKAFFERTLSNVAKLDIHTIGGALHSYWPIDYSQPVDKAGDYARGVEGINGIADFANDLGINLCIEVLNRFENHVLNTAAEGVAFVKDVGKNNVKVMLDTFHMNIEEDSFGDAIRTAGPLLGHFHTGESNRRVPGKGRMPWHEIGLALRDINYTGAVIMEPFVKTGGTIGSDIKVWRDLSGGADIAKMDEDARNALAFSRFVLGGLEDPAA

B1: psicose 3-epimerase: enzyme (SEQ ID NO:1) from Agrobacterium tumefaciens ATCC33970 that converts D-fructose to D-psicose; monomer, metalloenzyme (protein, listed as Agrobacterium tumefaciens)
chain: MKHGIYYSYWEHEWSAKFGPYIEKVAKLGFDIIEVAAHHINEYSDAELATIRKSAKDNGIILTAGIGPSKTKNLSSEDAAVRAAGKAFFERTLSNVAKLDIHTIGGALHSYWPIDYSQPVDKAGDYARGVEGINGIADFANDLGINLCIEVLNRFENHVLNTAAEGVAFVKDVGKNNVKVMLDTFHMNIEEDSFGDAIRTAGPLLGHFHTGESNRRVPGKGRMPWHEIGLALRDINYTGAVIMEPFVKTGGTIGSDIKVWRDLSGGADIAKMDEDARNALAFSRFVLGGLEDPAA

Columns and labels:
psicose 3-epimerase [1] = biological target: T1, psicose 3-epimerase; assay type: biochemical; details: for Relative activity (%): 1 mM metal ion added or EDTA treatment, 1.0% D-fructose, pH 7.5, 50° C., 20 minutes, None = 100; for effect of metal ion on enzyme activity: 1 mM metal ion, in words
Protocol: The enzyme activity was measured by using D-fructose as a substrate. For the measurement of the enzyme activity, psicose 3-epimerase was allowed to react with D-fructose in a 50 mM PIPES buffer solution containing 1.0% of D-fructose, at pH 7.5 and at 50° C. for 20 minutes, and then the reaction solution was heated at 100° C. for 5 minutes to terminate the reaction. […] For the purpose of easy comparison of the enzyme activity, one unit of psicose 3-epimerase is defined as the amount of the psicose 3-epimerase needed to produce 1 mole of D-psicose per one minute at pH 7.5 and at 50° C.
In order to investigate the effect of the addition of a metal ion, the enzyme activity of the psicose 3-epimerase was measured after treating the psicose 3-epimerase with EDTA, or after adding 1 mM each of the metal ions indicated in Table 1 below, to the psicose 3-epimerase. Reaction of the psicose 3-epimerase was performed in a 50 mM PIPES buffer solution containing 0.04 units/ml of the psicose 3-epimerase and 1.0% by weight of D-fructose at pH 7.5 and at 50° C. for 20 minutes, and then the reaction solution was heated at 100° C. for 5 minutes to terminate the reaction. Then, the enzyme activity of the psicose 3-epimerase was measured.

psicose 3-epimerase [2] = biological target: T1, psicose 3-epimerase; assay: Substrate specificity of psicose 3-epimerase; assay type: biochemical; details: for Relative activity (%) No metal ion added / Relative activity (%) Mn^2+ added: 10 mM monosaccharide as substrate, pH 7.5, 50° C., 20 minutes
Protocol: In the current Experimental Example, MALDI-TOF-MS was used for the measurement of the molecular weight of psicose 3-epimerase, and cinnamic acid was used as a matrix. The enzyme activity was measured by using D-fructose as a substrate. For the measurement of the enzyme activity, psicose 3-epimerase was allowed to react with D-fructose in a 50 mM PIPES buffer solution containing 1.0% of D-fructose, at pH 7.5 and at 50° C. for 20 minutes, and then the reaction solution was heated at 100° C. for 5 minutes to terminate the reaction. The PIPES buffer solution containing D-fructose was prepared by dissolving D-fructose in PIPES buffer solution at pH 7 to 8 to a concentration of 60 to 70% by weight, and the PIPES buffer solution containing D-fructose was continuously added to a bioreactor maintained at 40 to 60° C. For the purpose of easy comparison of the enzyme activity, one unit of psicose 3-epimerase is defined as the amount of the psicose 3-epimerase needed to produce […] of D-psicose per one minute at pH 7.5 and at 50° C.
The concentrations of D-fructose, D-psicose, D-sorbose, D-tagatose, D-xylulose and D-ribulose were measured using a high pressure liquid chromatography system with a BP-100 calcium ion […] column and an RI detector. The column was conditioned to allow a flow of distilled water at a rate of 0.5 ml/min at 80° C.
Reaction of the psicose 3-epimerase was performed in a 50 mM PIPES buffer solution containing 0.04 units/ml of the psicose 3-epimerase and 10 mM each individually of the monosaccharides indicated in Table 2 below, at pH 7.5 and at 50° C. for 20 minutes, and then each of the reaction solutions were heated at 100° C. for 5 minutes to terminate the reaction. Then, the enzyme activity of the psicose 3-epimerase of each reaction solution was measured.

lipogenic enzymes = details: dietary, in words; cited from earlier work
[3] = in words; cited from earlier work
[4] = Activity of psicose 3-epimerase according to pH and temperature changes; assay type: biochemical
Protocol: In Example 5, the psicose 3-epimerase was reacted with D-fructose at various pH values and temperatures, and the enzyme activities obtained at the various pH values and temperatures were compared. In order to investigate the pH effect, the reaction of the psicose 3-epimerase was performed in a 50 mM PIPES buffer solution containing 0.04 units of psicose 3-epimerase/ml and 1.0% of D-fructose at pH values ranging from 6.5 to 7.5, and the same reaction was performed in a 50 mM EPPS buffer solution containing 0.04 units of psicose 3-epimerase/ml and 1.0% of D-fructose at pH values ranging from 7.5 to 8.5. Here, the respective reactions were performed at 50° C. when metal ions were not added, and at 60° C. when Mn ions were added, respectively for 20 minutes. Then, the reactions were terminated by heating the reaction solutions at 100° C. for 5 minutes, and the enzyme activities were measured. The results are illustrated in FIG. 1A.
In order to investigate the temperature effect, the reaction was performed in a 50 mM PIPES buffer solution containing 0.04 units of psicose 3-epimerase/ml and 1.0% of D-fructose at temperatures ranging from 30° C. to 70° C. for 20 minutes, at pH 7.5 when metal ions were not added, and at pH 7.0 when Mn ions were added. The reactions were terminated by heating the reaction solution at 100° C. for 5 minutes, and the enzyme activities were measured. The results are illustrated in FIG. 1B.

[5] = Equilibrium between D-psicose and D-fructose achieved by psicose 3-epimerase; assay type: biochemical
Protocol: In Example 6, the reaction of the psicose 3-epimerase was performed in a 50 mM PIPES buffer solution containing 0.04 units of psicose 3-epimerase/ml, 1 mM of Mn^2+ ions, and 0.1% of D-psicose and D-fructose together, at pH 7.0 and at temperatures ranging from 30° C. to 60° C. for 24 hours to allow the reaction to proceed sufficiently, in order to determine the equilibrium between D-psicose and D-fructose. Then, the reactions were terminated by heating the reaction solution at 100° C. for 5 minutes, and the enzyme activity was measured.
As a result, the reaction was started with 5 initial ratios of D-psicose to D-fructose, of 0:100, 25:75, 50:50, 75:25, and 100:0, and the final ratios of D-psicose to D-fructose were determined after 24 hours of the reaction, as shown in FIG. 2. Referring to FIG. 2, the ratio of D-psicose to D-fructose was 32:68 at 30° C., while the same ratio was 37:63 at 60° C.

[6] = D-psicose production by free psicose 3-epimerase; assay type: biochemical; details: 700 g/L D-fructose; for D-Psicose: 14 units/ml, 1 mM Mn^2+, pH 7.0, 60° C.
Protocol: In order to produce D-psicose at high concentrations, the reaction was performed in a 50 mM PIPES buffer solution containing 14 units of psicose 3-epimerase/ml, 1 mM of Mn^2+ ions, and 700 g/L of D-fructose, at pH 7.0 and at 60° C. for various reaction times. Then, the reaction was terminated by heating the reaction solution at 100° C. for 5 minutes, and the enzyme activity was measured.

Molecule | Relative activity (%) (psicose 3-epimerase [1]) | Relative activity (%) No metal ion added (psicose 3-epimerase [2]) [%] | Relative activity (%) Mn^2+ added (psicose 3-epimerase [2]) [%] | further results
[Al+3] [Al^3+] | 100 | – | – | –
[Ba+2] [Ba^2+] | 95.6 | – | – | –
[Ca+2] [Ca^2+] | 64.4 | – | – | –
[Co+2] [Co^2+] | 268 | – | – | effect of metal ion on enzyme activity (psicose 3-epimerase [1]): enhanced the enzyme activity
[Cu+2] [Cu^2+] | 2.2 | – | – | effect of metal ion on enzyme activity (psicose 3-epimerase [1]): suppressed the enzyme activity
O=C(CO)[C@@H](O)[C@H](O)[C@H](O)COP(=O)(O)O [D-Fructose-6-phosphate] | – | 0.0 | 0.0 | –
O=C(CO)[C@@H](O)[C@H](O)[C@H](O)CO [D-Fructose] | – | 37.9 | 139 | –
O=C(CO)[C@H](O)[C@H](O)[C@H](O)CO [D-Psicose] | – | 100 | 274 | affinity of the psicose 3-epimerase for substrate (psicose 3-epimerase [2]; D-psicose compared with D-tagatose, in words): higher affinity; effect on activity of lipogenic enzymes (lipogenic enzymes): suppressing the activity of lipogenic enzymes; metabolism in the human body [3]: almost non-metabolizable
O=C(CO)[C@H](O)[C@H](O)COP(=O)(O)O [D-Ribulose-5-phosphate] | – | 0.0 | 0.0 | –
O=C(CO)[C@H](O)[C@H](O)CO [D-Ribulose] | – | 10.2 | 15.4 | –
O=C(CO)[C@H](O)[C@@H](O)[C@H](O)CO [D-Sorbose] | – | 0.8 | 1.7 | –
O=C(CO)[C@@H](O)[C@@H](O)[C@H](O)CO [D-Tagatose] | – | 65.5 | 92.3 | –
O=C(CO)[C@@H](O)[C@H](O)CO [D-Xylulose] | – | 5.8 | 12.4 | –
O=C(O)CN(CCN(CC(=O)O)CC(=O)O)CC(=O)O [EDTA] | 20.0 | – | – | –
[Fe+3] [Fe^3+] | 121 | – | – | Relative activity (%) (psicose 3-epimerase [1]; listed as Fe^2+): 139%
[Mg+2] [Mg^2+] | 100 | – | – | –
[Mn+2] [Mn^2+] | 274 | – | – | effect of metal ion on enzyme activity (psicose 3-epimerase [1]): enhanced the enzyme activity
[Mo+2] [Mo^2+] | 93.3 | – | – | –
[Zn+2] [Zn^2+] | 4.4 | – | – | effect of metal ion on enzyme activity (psicose 3-epimerase [1]): suppressed the enzyme activity
B1 | – | – | – | optimal pH ([4]; Mn^2+ ions added): 7.0; optimal temperature ([4]; Mn^2+ ions added): 60 °C; optimal pH ([4]; metal ions not added): 7.5; optimal temperature ([4]; metal ions not added): 50 °C; superiority to the yield achievable by conventional methods of producing D-psicose [5]: approximately 20%; D-Psicose ([6]; reaction time 0 min): 0 g/L; D-Psicose ([6]; reaction time 10 min): 93 g/L; D-Psicose ([6]; reaction time 30 min): 155 g/L; D-Psicose ([6]; reaction time 60 min): 180 g/L; D-Psicose ([6]; reaction time 120 min): 211 g/L; D-psicose conversion yield ([6]; reaction time 120 minutes): 30.2%; D-Psicose ([6]; reaction time 180 min): 210 g/L; D-Psicose ([6]; reaction time 240 min): 210 g/L; D-Psicose ([6]; reaction time 300 min): 209 g/L
